Data on eleven compounds can be found in ChEMBL document CHEMBL1201862, “PubChem BioAssay data set” (2004).

SMILES strings stand for the structures.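 Step 1: Grow cells in 96-well plates. Step 2: Expose to compound for 48 hours at 5 concentrations. Step 3: Interpolate endpoints linearly; if unreached, use highest concentration. GI50: concentration for 50% inhibition of growth.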 Calls of active or inactive are those of the source. Rule as the data show it: active = GI50 up to about 1.1 µM and inactive = higher.

Test systems include ACHN; CCRF-CEM; DU-145; EKVX; HCT-116; HOP-92; K562; M14; MDA-MB-435; MDA-N; NCI-H23; NCI-H460; NCI-H522; OVCAR-3; SK-MEL-5; SN12C; SNB-75; SW-620; UO-31.
Common to all, as to assay: NCI tumour cell line growth inhibition, 48 h

With `C=C1C[C@H](O)[C@H](Br)C(C)(C)C12CCC(C)(Cl)C(Br)C2` (stereo not given in full), the GI50 is 5.05 µM (inactive) in the assay with ACHN; 0.0359 µM (active) in the assay on CCRF-CEM; 4.84 µM (inactive) with DU-145; 0.286 µM (active) in the assay with EKVX; 6.38 µM (inactive) with HCT-116; 1.5 µM (inactive) in the assay with HOP-92. The GI50 was 2.44 µM (inactive) in the assay on K562; 2.36 µM (inactive) with M14; 2.3 µM (inactive) in the assay with MDA-MB-435; 1.39 µM (inactive) in the assay on MDA-N; 0.445 µM (active) in the assay with NCI-H23; 1.69 µM (inactive) in the assay on NCI-H460. The GI50 in the assay on NCI-H522 was 3.83 µM (inactive); with OVCAR-3, 4.3 µM (inactive); in the assay on SK-MEL-5, 3.04 µM (inactive); in the assay with SN12C, 4.37 µM (inactive); with SNB-75, 1.94 µM (inactive); in the assay with SW-620, 4.99 µM (inactive). Besides, the GI50 with UO-31 is 7.93 µM (inactive).
With `NC1=NN(c2ccccc2)C2(c3ccncc3C(=O)O)C1C(N)=NN2c1ccccc1` (stereo not given), the GI50 in the assay with ACHN, with CCRF-CEM, in the assay on DU-145, in the assay on EKVX, with HCT-116 and in the assay on HOP-92 was > 100 µM (inactive) in each case. Also, the GI50 with K562, in the assay on M14, in the assay with MDA-MB-435, with MDA-N, in the assay with NCI-H23 and in the assay with NCI-H460 was > 100 µM (inactive) throughout. Further, the GI50 with NCI-H522, with OVCAR-3, with SK-MEL-5, with SN12C, in the assay with SNB-75 and with SW-620 was > 100 µM (inactive) each time. The GI50 in the assay on UO-31 was > 100 µM (inactive).
Turning to `CCN(CC)C(=S)SC1CCOP(=O)(N(CCCl)CCCl)N1C` (stereo not given), the GI50 was 38.9 µM (inactive) in the assay with ACHN; 0.109 µM (active) in the assay with CCRF-CEM; > 100 µM (inactive) in the assay with DU-145; 57.1 µM (inactive) with EKVX; 0.412 µM (active) with HCT-116; 28.2 µM (inactive) with HOP-92. Also, the GI50 in the assay with K562 is 0.399 µM (active); with M14, > 39.7 µM (inactive); in the assay on MDA-MB-435, > 100 µM (inactive); with MDA-N, > 100 µM (inactive); with NCI-H23, > 100 µM (inactive); in the assay with NCI-H460, 1.02 µM (active). The GI50 in the assay with NCI-H522 was 0.43 µM (active); in the assay on OVCAR-3 it was > 100 µM (inactive); with SK-MEL-5 it was 2.96 µM (inactive); with SN12C it was 28.9 µM (inactive); with SNB-75, > 55.1 µM (inactive); in the assay on SW-620 it was 1.71 µM (inactive). Also, in the assay on UO-31, the GI50 is 67.8 µM (inactive).
On to `CCN(CC)CC(O)c1ccc2ccc3ccccc3c2c1` (stereo not given), for which the GI50 in the assay with ACHN was 14.3 µM (inactive); in the assay with CCRF-CEM, 23.7 µM (inactive); in the assay on DU-145, 19 µM (inactive); in the assay with EKVX it was 14.1 µM (inactive); with HCT-116 it was 15.3 µM (inactive); in the assay with HOP-92 it was 14.2 µM (inactive). Besides, the GI50 is 17 µM (inactive) in the assay on K562; 16.3 µM (inactive) with M14; 16.3 µM (inactive) in the assay with MDA-MB-435; 15.6 µM (inactive) in the assay on MDA-N; 16.9 µM (inactive) in the assay on NCI-H23; 17.5 µM (inactive) with NCI-H460. Moreover, the GI50 was 15.6 µM (inactive) in the assay with NCI-H522; 15.7 µM (inactive) with OVCAR-3; 13.9 µM (inactive) in the assay on SK-MEL-5; 16.3 µM (inactive) with SN12C; 19.1 µM (inactive) in the assay on SNB-75; 18.5 µM (inactive) in the assay on SW-620. Moreover, the GI50 in the assay on UO-31 is 11.2 µM (inactive).
As for `CCN(CC)c1ccc(/C=C/C2=NN(c3cccc(S(=O)(=O)O)c3)C3(C2)C(Cl)C(=O)N3c2nc3ccccc3s2)cc1` (stereo not given), the GI50 is 10.9 µM (inactive) in the assay on ACHN; 1.83 µM (inactive) in the assay on CCRF-CEM; 12.6 µM (inactive) with DU-145; 8.79 µM (inactive) in the assay with EKVX; 10.5 µM (inactive) in the assay on HCT-116; 6.73 µM (inactive) in the assay with HOP-92. The GI50 with K562 is 5.55 µM (inactive); with M14, 12.4 µM (inactive); in the assay on MDA-MB-435 it was 5.87 µM (inactive); in the assay on MDA-N it was 12.4 µM (inactive); with NCI-H23, 7.01 µM (inactive); with NCI-H460, 9.1 µM (inactive). Moreover, the GI50 is 1.72 µM (inactive) in the assay with NCI-H522; 4.11 µM (inactive) in the assay on OVCAR-3; 6.71 µM (inactive) in the assay with SK-MEL-5; 8.18 µM (inactive) in the assay with SN12C; 11.1 µM (inactive) in the assay on SNB-75; 10.2 µM (inactive) with SW-620. Further, the GI50 in the assay on UO-31 was 1.72 µM (inactive).
In the case of `Cc1cc(NC(=O)NC(=O)c2ccccc2NC(=O)C(C)N)ccc1Oc1ncc(Br)cn1` (stereo not given), the GI50 with ACHN was 1.22 µM (inactive); with CCRF-CEM it was 0.0619 µM (active); in the assay with DU-145 it was 0.136 µM (active); with EKVX it was 0.335 µM (active); in the assay with HCT-116, 0.714 µM (active); with HOP-92, 1.92 µM (inactive). The GI50 with K562 is 0.136 µM (active); in the assay with M14, 0.13 µM (active); in the assay with MDA-MB-435 it was 0.0254 µM (active); with MDA-N, 0.0202 µM (active); with NCI-H23, 0.172 µM (active); in the assay on NCI-H460, 0.179 µM (active). Besides, the GI50 in the assay on NCI-H522 was 0.0301 µM (active); in the assay on OVCAR-3, 0.0196 µM (active); in the assay with SK-MEL-5, 0.0457 µM (active); with SN12C it was 0.0885 µM (active); in the assay with SNB-75 it was < 0.01 µM (active); with SW-620 it was 0.185 µM (active). Moreover, the GI50 in the assay with UO-31 was 0.216 µM (active).
For the compound `CCN(CC)CCOC(=O)CCN1CC2CCC(CC2)C1`, the GI50 in the assay on ACHN, with CCRF-CEM, with DU-145, in the assay with EKVX, in the assay with HCT-116 and with HOP-92 was > 100 µM (inactive) in each case. The GI50 in the assay with K562, in the assay with M14, in the assay on MDA-MB-435, in the assay on MDA-N, with NCI-H23 and with NCI-H460 was > 100 µM (inactive) throughout. In addition, the GI50 was > 100 µM (inactive) in the assay with NCI-H522; > 100 µM (inactive) with OVCAR-3; > 100 µM (inactive) with SK-MEL-5; 78.2 µM (inactive) in the assay with SNB-75; > 100 µM (inactive) in the assay on SW-620; > 100 µM (inactive) in the assay on UO-31.
Turning to `O=C(Oc1c(Cl)cc(C2(c3cc(Cl)c(OC(=O)c4ccccc4)c(Cl)c3)CCCCC2)cc1Cl)c1ccccc1`, the GI50 with ACHN is 5.15 µM (inactive); with CCRF-CEM, 8 µM (inactive); in the assay with DU-145, 12.2 µM (inactive); in the assay with EKVX, 11.1 µM (inactive); with HCT-116, 13.2 µM (inactive); with HOP-92, 8.45 µM (inactive). For the same compound, the GI50 with K562 was 7.96 µM (inactive); with M14, 14.5 µM (inactive); with MDA-MB-435, 10.1 µM (inactive); with MDA-N, 12.7 µM (inactive); with NCI-H23, 10.4 µM (inactive); in the assay on NCI-H460 it was 6.65 µM (inactive). For the same compound, the GI50 is 13.7 µM (inactive) in the assay with NCI-H522; 10.9 µM (inactive) with OVCAR-3; 10.6 µM (inactive) with SK-MEL-5; 13.2 µM (inactive) in the assay with SN12C; 11.7 µM (inactive) with SNB-75; 16.2 µM (inactive) in the assay with SW-620. Further, in the assay on UO-31, the GI50 is 18.5 µM (inactive).
For `COc1cc(/C=C2\N=C(c3ccccc3)N(c3nc4ccc(Sc5ccccc5)cc4[nH]3)C2=O)ccc1O`, the GI50 was 26.9 µM (inactive) in the assay on ACHN; 6.14 µM (inactive) in the assay on CCRF-CEM; 35.7 µM (inactive) in the assay on DU-145; 31.5 µM (inactive) in the assay with EKVX; 21.1 µM (inactive) in the assay on HCT-116; 62.2 µM (inactive) with HOP-92. For the same compound, the GI50 was 11.7 µM (inactive) with K562; 15.6 µM (inactive) in the assay on M14; 3.56 µM (inactive) in the assay with MDA-MB-435; 5.13 µM (inactive) in the assay on MDA-N; 26.8 µM (inactive) with NCI-H23; 19.5 µM (inactive) in the assay with NCI-H460. The GI50 in the assay with NCI-H522 is 18.8 µM (inactive); in the assay on OVCAR-3, 30.5 µM (inactive); in the assay with SK-MEL-5, 14.7 µM (inactive); with SN12C it was 26.9 µM (inactive); in the assay with SNB-75 it was 33.6 µM (inactive); in the assay on SW-620, 21.7 µM (inactive). Also, the GI50 in the assay with UO-31 is 28.7 µM (inactive).
Take `O=C1CN(c2cccc(Cl)c2)C(=O)CN1NCNN1CC(=O)N(c2cccc(Cl)c2)CC1=O`: the GI50 in the assay with ACHN, with CCRF-CEM, with DU-145, with EKVX, with HCT-116 and in the assay with HOP-92 was > 100 µM (inactive) in each case. Further, the GI50 in the assay on M14, with MDA-MB-435, with MDA-N, in the assay on NCI-H23, in the assay on NCI-H460 and in the assay with NCI-H522 was > 100 µM (inactive) throughout. For the same compound, the GI50 is > 100 µM (inactive) in the assay on OVCAR-3; > 100 µM (inactive) in the assay with SK-MEL-5; > 100 µM (inactive) in the assay on SN12C; 38.3 µM (inactive) with SNB-75; > 100 µM (inactive) in the assay with SW-620; > 100 µM (inactive) in the assay on UO-31.
Consider `CC(=O)c1nc2ccccc2n1C(C)C(=O)c1ccccc1` (stereo not given), for which the GI50 was 39.6 µM (inactive) in the assay with CCRF-CEM; 64.9 µM (inactive) in the assay with DU-145; > 100 µM (inactive) in the assay with EKVX; 50.4 µM (inactive) in the assay with HCT-116; 69.3 µM (inactive) with HOP-92; 36.5 µM (inactive) in the assay on K562. Besides, the GI50 was 42.8 µM (inactive) with M14; 52.7 µM (inactive) in the assay on MDA-MB-435; 54.1 µM (inactive) in the assay on MDA-N; > 100 µM (inactive) in the assay on NCI-H23; 33 µM (inactive) with NCI-H460; 15.5 µM (inactive) in the assay with NCI-H522. In addition, the GI50 in the assay with OVCAR-3 is 41.8 µM (inactive); with SN12C, 56.6 µM (inactive); in the assay on SNB-75, > 100 µM (inactive); in the assay with SW-620, 43.7 µM (inactive); with UO-31, 50.7 µM (inactive).
